Consider 23 molecules from patent US4470980A, “Method of increasing oral absorption of β-lactam antibiotics” (priority 1981, dated 1984).

Where two headings read alike, the source gives them in different places.

A short description of data set [1]: Blood level AUC after oral capsule of β-lactam antibiotic with adjuvant in dogs. The class given is in vivo, dog (Beagles). The following applies: 300 mg/kg, dog, per os capsule, control, no absorption promotor, carbenicillin by bioassay, read-out: (AUC)° area below the blood level curve.
Experimental: Animal: Beagles (body weight 9.9-12.0 kg), 2 animals per test
Drug: β-Lactam antibiotics
Adjuvant: Hydroxylated aromatic carboxylic acids
Dose: β-Lactam antibiotic/adjuvant=300 mg/300 mg/kg
Form of inoculum: Capsule
Route of administration: Per os
Blood sampling: Vein (upper arm)
Object of assay: Blood level
Quantitation: Carbenicillin was determined by bioassay.
The nature of data set [2]: in vivo. Particulars: mouse, urine, po, control without sodium salicylate, cefmetazole 50 mg/kg, gavage, mice, ± standard deviation, 8 mice, read-out: Percent of Dose In Urine.
Experimental: The sodium salt of cefmetazole (50 mg/kg) and sodium salicylate (200 mg/kg) dissolved in water were given to mice by gavage. As a control, mice were given an equal dose of the sodium salt of cefmetazole in water without the added sodium salicylate. The mice were place in individual metabolism cages and their urines collected after 24 hours.
The urine samples were acidified to pH 2.0 with 1N phosphoric acid. Acidified samples were applied to 100-200 mesh XAD.2 columns (1.5 ml), and the column washed with H2 O. Cefmetazole was eluted with 2 ml methanol and measured by high pressure liquid chromatography which was carried out using an Altex liquid chromatograph equipped with a dual wavelength recorder (254 nm and 280 nm). The column was a LiChrosorb 10 RP-18 (length=25 cm., internal diameter--4.6 mm) obtained from Chrompack, Whittier, CA. All assays were done at ambient temperatures. A 3 cm guard column of RP-18 column material (Rheodyne, Inc., Berkeley, CA) was also used. […] Concentrations of cefmetazole were determined by measuring peak height at 254 nm and evaluating on the basis of standard curves run under identical conditions.
The conditions of data set [3]: cited from earlier work.
The conditions of data set [4]: gastric acid; prior art; cited from earlier work.

Regarding `CC1(C)S[C@@H]2[C@H](NC(=O)C(C(=O)O)c3ccccc3)C(=O)N2[C@H]1C(=O)O` (stereo partly drawn) [Carbenicillin], in data set [1], the exposure (AUC) turned out to be 5200 ng·h/mL.

As to `CO[C@@]1(NC(=O)CSCC#N)C(=O)N2C(C(=O)O)=C(CSc3nnnn3C)CS[C@@H]21` [Cefmetazole], the dose excreted at 24 h in data set [2] turned out to be 9.1 ± 7.5%. Moreover, the oral activity entry in data set [3] (oral, prior art) is “poor oral activity”.

With `CO[C@@]1(NC(=O)C(C(=O)O)c2ccc(O)cc2)C(=O)N2C(C(=O)O)=C(CSc3nnnn3C)CO[C@@H]21` (stereo partly drawn) [Example S-6059], the oral activity entry in data set [3] (in vivo, po) was “poor oral activity”.

With `CCN1CCN(C(=O)N[C@@H](C(=O)N[C@@H]2C(=O)N3C(C(=O)O)=C(CSc4nnnn4C)CS[C@H]23)c2ccc(O)cc2)C(=O)C1=O` [Example T-1551], the oral activity result in data set [3] (oral, prior art) is reported as “poor oral activity”.

As to `CC1(C)S[C@@H]2[C@H](NC(=O)[C@H](N)c3ccc(O)cc3)C(=O)N2[C@H]1C(=O)O` [amoxicillin, 6-[[amino(4-hydroxyphenyl)-acetyl]amino]-3,3-dimethyl-7-oxo-4-thia-1-azabicyclo-[3.2.0]heptane-2-carboxylic acid], the oral activity entry in data set [3] (oral, prior art) is “poor oral activity”.

For the molecule `CC1(C)S[C@@H]2[C@H](NC(=O)[C@H](N)c3ccccc3)C(=O)N2[C@H]1C(=O)O` [ampicillin], in data set [3] (oral, prior art), the oral activity result is “poor oral activity”.

Take `CC1(C)S[C@@H]2[C@H](NC(=O)C(C(=O)Oc3ccccc3)c3ccccc3)C(=O)N2[C@H]1C(=O)O` (stereo partly drawn) [carfecillin]: in data set [3] (in vivo, po), the absorbed is 40% and the blood levels result is “low blood levels of carbenicillin”.

As for `CC1(C)S[C@@H]2[C@H](NC(=O)C(C(=O)Oc3ccc4c(c3)CCC4)c3ccccc3)C(=O)N2[C@H]1C(=O)O` (stereo partly drawn) [carindacillin], in data set [3] (in vivo, po), the absorbed was 40% and the blood levels entry is “low blood levels of carbenicillin”.

In the case of `N[C@@H](C(=O)N[C@@H]1C(=O)N2C(C(=O)O)=C(Cl)CS[C@H]12)c1ccccc1` [cefaclor], the absorbed result in data set [3] (oral, prior art) was “greater than 80%”.

With `Cc1nnc(SCC2=C(C(=O)O)N3C(=O)[C@@H](NC(=O)[C@H](N)c4ccc(O)cc4)[C@H]3SC2)s1` [cefaporole], the oral activity entry in data set [3] (oral, prior art) was “poor oral activity”.

As for `Cc1nnc(SCC2=C(C(=O)O)N3C(=O)[C@@H](NC(=O)Cn4cnnn4)[C@H]3SC2)s1` [cefaxolin], the oral activity entry in data set [3] (oral, prior art) was “poor oral activity”.

On to `CC1=C(C(=O)O)N2C(=O)[C@@H](NC(=O)[C@H](N)c3ccc(O)cc3)[C@H]2SC1` [cefdioxil], for which the absorbed entry in data set [3] (in vivo, po) was “greater than 80%”.

On to `CO[C@@]1(NC(=O)Cc2cccs2)C(=O)N2C(C(=O)O)=C(COC(N)=O)CS[C@@H]21` [cefoxitin, (6R-cis)-3-[[(amino-carbonyl)oxy]methyl]-7-methoxy-8-oxo7[(2-thienylacetyl)-amino]-5-thia-1-azabicyclo [4.2.0]oct-2-ene-2-carboxylic acid], for which the oral activity result in data set [3] (in vivo, po) is given as “poor oral activity”.

Take `CO/N=C(\C(=O)N[C@@H]1C(=O)N2C(C(=O)O)=C(COC(N)=O)CS[C@H]12)c1ccco1` [cefuroxime]: in data set [3] (in vivo, po), the oral activity result is “poor oral activity”.

With `CC(=O)OCC1=C(C(=O)O)N2C(=O)[C@@H](NC(=O)CC#N)[C@H]2SC1` [cephacetrile], the oral activity entry in data set [3] (oral, prior art) is recorded as “poor oral activity”.

As for `CC(=O)OCC1=C(C(=O)O)N2C(=O)[C@@H](NC(=O)[C@H](N)c3ccccc3)[C@H]2SC1` [cephaloglycin], the absorbed result in data set [3] (oral, prior art) is given as “greater than 80%”.

Regarding `O=C(Cc1cccs1)N[C@@H]1C(=O)N2C(C(=O)[O-])=C(C[n+]3ccccc3)CS[C@H]12` [cephaloridine], the oral activity result in data set [3] (oral, prior art) is listed as “poor oral activity”.

For the molecule `CC(=O)OCC1=C(C(=O)O)N2C(=O)[C@@H](NC(=O)CCC[C@@H](N)C(=O)O)[C@H]2SC1` [cephalosporin C], in data set [3] (oral, prior art), the oral activity entry is given as “lack of oral activity”.

Take `CC(=O)OCC1=C(C(=O)O)N2C(=O)[C@@H](NC(=O)Cc3cccs3)[C@H]2SC1` [cephalothin]: the oral activity result in data set [3] (in vivo, po) was “poor oral activity”.

Consider `CC(=O)OCC1=C(C(=O)O)N2C(=O)[C@@H](NC(=O)CSc3ccncc3)[C@H]2SC1` [cephapirin], for which the oral activity result in data set [3] (oral, prior art) is “poor oral activity”.

With `CC1=C(C(=O)O)N2C(=O)[C@@H](NC(=O)[C@H](N)C3=CCC=CC3)[C@H]2SC1` [cephradine], the absorbed entry in data set [3] (in vivo, po) was “greater than 80%”.

For `CC1(C)S[C@@H]2[C@H](NC(=O)COc3ccccc3)C(=O)N2[C@H]1C(=O)O` [penicillin V], the acid stability result in data set [4] is “more acid stable”. Also, the blood levels entry in data set [3] (oral, prior art) is “higher blood levels of the active therapeutic agent”.

Regarding `CC1(C)S[C@@H]2[C@H](NC(=O)[C@H](C(=O)O)c3ccsc3)C(=O)N2[C@H]1C(=O)O` [ticarcillin], the oral activity entry in data set [3] (oral, prior art) is recorded as “cannot be administered by the oral route”.

For orientation: AUC means concentration integrated over time.
